This note sets out measurements from EPA's ToxValDB 9.5.

Data set [1] deals with Rattus norvegicus.
The test system of data set [2] is Rattus norvegicus. This is another data set of the same source.
Data set [3] has as its system Rattus norvegicus. As to conditions: subchronic, oral; for NOEL: gavage, Sprague-Dawley.
Another data set has as its system Mus musculus. As to conditions: chronic; duration: 81 weeks; oral; M/F; B6C3F1; respiratory.
Data set [4] deals with Rattus norvegicus. To be noted: for LEL: uterotrophic, Active; for LOEL / NOEL: Hershberger, duration: 10 days.
Data set [5] has as its system Rattus norvegicus. To be noted: developmental; oral; M/F; reduced pup weanling weight.
Where [6] appears, read: subchronic, duration: 30 days, oral, diet, Sprague-Dawley.
[7] abbreviates: duration: 3 days, injection, subcutaneous.
[8] abbreviates: injection, subcutaneous, Sprague-Dawley, active + Androgenic + androgenic.
Where [9] appears, read: oral, gavage, Wistar, active + Androgenic + androgenic.
Setting [10] is: oral, gavage, wistar, active + Androgenic + androgenic.
The mark [11] stands for this setting: oral, gavage, Sprague-Dawley, active + Negative + Antiandrogenic + anti-androgenic.

Values joined by “and” are separate entries in the source; they are usually repeats but may differ in a detail not shown here. Equal values may be shown once. Some results are limits rather than exact numbers.

One may read the NOAEL as the highest dose or exposure tested at which no adverse effect was seen. As to `CN1C(=O)c2ccc(Oc3ccc(C(C)(C)c4ccc(Oc5ccc6c(c5)C(=O)N(C)C6=O)cc4)cc3)cc2C1=O`, the NOAEC was above 1000 mg/kg-day in the data set with Oryctolagus sp. (developmental, duration: 12 days, oral, gavage, New Zealand); above 1000 mg/kg-day in the data set with Oryctolagus sp. (reproduction developmental, duration: 13 days, oral, gavage, F, New Zealand); above 1000 mg/kg-day with Oryctolagus sp. (reproduction developmental, duration: 13 days, oral, gavage, New Zealand). The NOAEL in the data set with Oryctolagus sp. (reproduction developmental, duration: 12 days, oral, gavage, F, New Zealand) was above 1000 mg/kg-day; in the data set with Rattus norvegicus [1] (developmental, duration: 10 days, oral, gavage, Sprague-Dawley), above 1000 mg/kg-day; in the data set with Rattus norvegicus [1] (reproduction developmental, duration: 4 weeks, oral, gavage, Sprague-Dawley, generation: F0) it was above 1000 mg/kg-day; in the data set with Rattus norvegicus [1] (reproduction developmental, duration: 4 weeks, oral, gavage, Sprague-Dawley, generation: F1), above 1000 mg/kg-day; in the data set on Rattus norvegicus [1] (reproduction developmental, duration: 10 days, oral, gavage, Crl:CD(SD) BR), above 1000 mg/kg-day; in the data set on Rattus norvegicus [1] (setting [6]), ≥ 2750 mg/kg-day and ≤ 3160 mg/kg-day. Moreover, the “LOAEL (% diet)” value in the data set on Rattus norvegicus [1] (setting [6]) was above 4. Besides, in the data set with Rattus norvegicus [1] (setting [6]), the “NOAEL (% diet)” value came to 4.
`CCCBr` [1-Bromopropane]: the no observed adverse effect level (NOAEL) in the data set with Rattus norvegicus [2] (short-term, duration: 3 weeks, inhalation, whole body, M, F-344, neurological) stood at 50.3 mg/m3.
As usually defined, the LOAEL is the lowest tested level that showed an adverse finding. In the case of `Cc1cccc2ccccc12` [1-Methylnaphthalene], the NOEL in the data set on Rattus norvegicus [3] (M, Absolute Organ Weight: Liver increase + Relative Organ Weight: Liver increase) stood at 50 mg/kg-day. In addition, in the data set with Mus musculus, the lowest-observed-adverse-effect level (LOAEL) came to 71.6 mg/kg-day.
Regarding `CCCCC(CC)CO[N+](=O)[O-]` (stereo not drawn) [2-Ethylhexyl nitrate], the NOAEL with Oryctolagus sp. (short-term, duration: 15 days, dermal, semiocclusive, Albino) is above 500 mg/kg-day; with Rattus norvegicus [1] (reproduction developmental, oral, gavage, Sprague-Dawley, generation: F0), 20 mg/kg-day; in the data set on Rattus norvegicus [1] (reproduction developmental, oral, gavage, Sprague-Dawley, generation: F1), 100 mg/kg-day; with Rattus norvegicus [1] (short-term, duration: 14 days, inhalation, Sprague-Dawley), 301 mg/m3; with Rattus norvegicus [1] (short-term, duration: 28 days, oral, gavage, Sprague-Dawley) it was 20 mg/kg-day.
Take `Nc1ccc(Cc2ccc(N)cc2)cc1` [4,4'-Diaminobiphenyl methane]: the NOAEL with Rattus norvegicus [3] (duration: 90 days, drinking water, M/F, Tif / RAlf, Deaths + Body Weight Changes: Weight gain + Food Consumption: decrease + Water Consumption: decrease + Hematology: RBC decrease, HGB …) is below 12.2 mg/kg-day; in the data set with Rattus norvegicus [2] (subchronic, duration: 12 weeks, oral, gavage, M/F, Wistar, hepatic) it was 8.3 mg/kg-day. In the data set on Rattus norvegicus [2] (acute, duration: 1 days, oral, gavage, M, Sprague-Dawley, hepatic), this compound registered an LOAEL of 25 mg/kg-day.
In the data set on Rattus norvegicus [4] (duration: 7 days, injection, subcutaneous), `O=[N+]([O-])c1ccc(O)cc1` [4-Nitrophenol] showed an LEL of 10 mg/kg-day.
As to `Oc1ccc(-c2ccccc2)cc1` [4-Phenylphenol], the NOEL with Rattus norvegicus [3] (M, Body Weight Changes: Reduced gain + Food Consumption: decrease + Hematology: WBC increase, NeutrophilSegment(%) decrease, Lymphocyte(%) …) is 30 mg/kg-day. In the data set with Rattus norvegicus [4] (setting [7]), the LEL is 10 mg/kg-day.
Take `C[C@]12C=CC3=C4CCC(=O)C=C4CC[C@H]3[C@@H]1CC[C@@H]2O` [17beta-Trenbolone]: the LOEL in the data set with Rattus norvegicus [4] (setting [8]) turned out to be 200 mg/kg-day; with Rattus norvegicus [4] (oral, gavage, Sprague-Dawley, androgenic), 40 mg/kg-day; with Rattus norvegicus [4] (setting [9]) it was 40 mg/kg-day; with Rattus norvegicus [4] (setting [10]), 40 mg/kg-day. For the same compound, the NOEL was determined as 100 mg/kg-day in the data set with Rattus norvegicus [4] (setting [8]), 8 mg/kg-day in the data set with Rattus norvegicus [4] (setting [9]) and 8 mg/kg-day in the data set on Rattus norvegicus [4] (setting [10]).
In the data set with Rattus norvegicus [4] (duration: 7 days, oral), `O=c1cc(-c2ccc(O)cc2)oc2cc(O)cc(O)c12` [Apigenin] had an LEL of 5 mg/kg-day.
`CCCCNC(=O)n1c(NC(=O)OC)nc2ccccc21` [Benomyl]: in the data set with Rattus norvegicus [4] (setting [11]), the LOEL worked out at 1000 mg/kg-day and the NOEL was determined as 300 mg/kg-day. Also, in the data set on Rattus norvegicus [5], the LEL is 25 mg/kg-day and the NOEL was 5 mg/kg-day.
For `O=C(c1ccccc1)c1ccccc1` [Benzophenone], the LEL with Rattus norvegicus [4] (duration: 3 days, injection, intraperitoneal) was found to be 300 mg/kg-day; in the data set on Rattus norvegicus [4] (setting [7]), 500 mg/kg-day; with Rattus norvegicus [4] (duration: 3 days, oral) it was 400 mg/kg-day.
On to `ClCCOCCCl` [Bis(chloroethyl) ether], for which, in the data set on Rattus norvegicus [3], the NOEL was 15 mg/kg-day. Also, the LOAEL in the data set with Rattus norvegicus [2] (chronic, duration: 130 days, inhalation, M/F, body weight) worked out at 404 mg/m3.
`CCC[CH2][Sn]([Cl])([Cl])[CH2]CCC` [Dibutyltin dichloride]: in the data set with Rattus norvegicus [2] (short-term, duration: 6 weeks, oral, diet, M/F, Wistar, immunological), the lowest observed adverse effect level (LOAEL) was 5 mg/kg-day.
